Numbers after ± are expanded uncertainties.
Assay: xn = mol fraction of the nth substance listed
Conditions: Liquid, Vibrating tube method

CCCCCCCCC [nonane] + CCCO
Conditions | mass density [kg/m3]
323.15 K, 12010 kPa, x2 = 0.8941 | 768.14 ± 4.9
323.15 K, 12020 kPa, x2 = 0.1231 | 706.6 ± 4.5
323.15 K, 12020 kPa, x2 = 0.2315 | 710.98 ± 4.6
323.15 K, 12020 kPa, x2 = 0.4272 | 720.79 ± 4.6
323.15 K, 13000 kPa, x2 = 0.1231 | 707.48 ± 4.5
323.15 K, 13000 kPa, x2 = 0.4272 | 721.68 ± 4.6
323.15 K, 13000 kPa, x2 = 0.7021 | 743.81 ± 4.8
323.15 K, 13010 kPa, x2 = 0.2315 | 711.85 ± 4.6
323.15 K, 13010 kPa, x2 = 0.8941 | 768.99 ± 4.9
323.15 K, 13020 kPa, x2 = 0.3229 | 715.95 ± 4.6
323.15 K, 14000 kPa, x2 = 0.1231 | 708.35 ± 4.5
323.15 K, 14000 kPa, x2 = 0.2315 | 712.73 ± 4.6
323.15 K, 14000 kPa, x2 = 0.8941 | 769.85 ± 4.9
323.15 K, 14010 kPa, x2 = 0.4272 | 722.55 ± 4.6
323.15 K, 14020 kPa, x2 = 0.3229 | 716.82 ± 4.6
323.15 K, 14020 kPa, x2 = 0.7021 | 744.68 ± 4.8
323.15 K, 15000 kPa, x2 = 0.1231 | 709.2 ± 4.5
323.15 K, 15000 kPa, x2 = 0.3229 | 717.67 ± 4.6
323.15 K, 15010 kPa, x2 = 0.7021 | 745.54 ± 4.8
323.15 K, 15010 kPa, x2 = 0.8941 | 770.68 ± 4.9
323.15 K, 15020 kPa, x2 = 0.2315 | 713.58 ± 4.6
323.15 K, 15020 kPa, x2 = 0.4272 | 723.42 ± 4.6
323.15 K, 16010 kPa, x2 = 0.1231 | 710.02 ± 4.5
323.15 K, 16010 kPa, x2 = 0.8941 | 771.51 ± 4.9
323.15 K, 16020 kPa, x2 = 0.2315 | 714.42 ± 4.6
323.15 K, 16020 kPa, x2 = 0.3229 | 718.52 ± 4.6
323.15 K, 16020 kPa, x2 = 0.4272 | 724.26 ± 4.6
323.15 K, 16020 kPa, x2 = 0.7021 | 746.38 ± 4.8
323.15 K, 17000 kPa, x2 = 0.2315 | 715.27 ± 4.6
323.15 K, 17000 kPa, x2 = 0.3229 | 719.35 ± 4.6
323.15 K, 17000 kPa, x2 = 0.8941 | 772.34 ± 5
323.15 K, 17010 kPa, x2 = 0.4272 | 725.1 ± 4.7
323.15 K, 17020 kPa, x2 = 0.1231 | 710.86 ± 4.6
323.15 K, 17020 kPa, x2 = 0.7021 | 747.22 ± 4.8
323.15 K, 18000 kPa, x2 = 0.1231 | 711.67 ± 4.6
323.15 K, 18010 kPa, x2 = 0.2315 | 716.08 ± 4.6
323.15 K, 18010 kPa, x2 = 0.3229 | 720.19 ± 4.6
323.15 K, 18010 kPa, x2 = 0.4272 | 725.91 ± 4.7
323.15 K, 18010 kPa, x2 = 0.7021 | 748.04 ± 4.8
323.15 K, 18010 kPa, x2 = 0.8941 | 773.16 ± 5
323.15 K, 19010 kPa, x2 = 0.1231 | 712.48 ± 4.6
323.15 K, 19010 kPa, x2 = 0.2315 | 716.87 ± 4.6
323.15 K, 19010 kPa, x2 = 0.3229 | 720.99 ± 4.6
323.15 K, 19010 kPa, x2 = 0.4272 | 726.74 ± 4.7
323.15 K, 19020 kPa, x2 = 0.7021 | 748.85 ± 4.8
323.15 K, 19020 kPa, x2 = 0.8941 | 773.95 ± 5
323.15 K, 20000 kPa, x2 = 0.4272 | 727.54 ± 4.7
323.15 K, 20010 kPa, x2 = 0.2315 | 717.66 ± 4.6
323.15 K, 20010 kPa, x2 = 0.8941 | 774.74 ± 5
323.15 K, 20020 kPa, x2 = 0.1231 | 713.24 ± 4.6
323.15 K, 20020 kPa, x2 = 0.3229 | 721.77 ± 4.6
323.15 K, 20020 kPa, x2 = 0.7021 | 749.67 ± 4.8
333.15 K, 100 kPa, x2 = 0.1231 | 686.98 ± 4.4
333.15 K, 100 kPa, x2 = 0.2315 | 690.52 ± 4.4
333.15 K, 100 kPa, x2 = 0.3229 | 694.34 ± 4.5
333.15 K, 100 kPa, x2 = 0.4272 | 699.84 ± 4.5
333.15 K, 100 kPa, x2 = 0.7021 | 721.88 ± 4.6
333.15 K, 100 kPa, x2 = 0.8941 | 747.76 ± 4.8
333.15 K, 1000 kPa, x2 = 0.8941 | 748.19 ± 4.8
333.15 K, 1010 kPa, x2 = 0.2315 | 691.2 ± 4.4
333.15 K, 1010 kPa, x2 = 0.3229 | 694.86 ± 4.5
333.15 K, 1010 kPa, x2 = 0.4272 | 700.34 ± 4.5
333.15 K, 1010 kPa, x2 = 0.7021 | 722.39 ± 4.6
333.15 K, 1020 kPa, x2 = 0.1231 | 687.08 ± 4.4
333.15 K, 2000 kPa, x2 = 0.3229 | 695.92 ± 4.5
333.15 K, 2000 kPa, x2 = 0.4272 | 701.38 ± 4.5
333.15 K, 2010 kPa, x2 = 0.1231 | 688.14 ± 4.4
333.15 K, 2010 kPa, x2 = 0.2315 | 692.25 ± 4.4
333.15 K, 2010 kPa, x2 = 0.8941 | 749.18 ± 4.8
333.15 K, 2020 kPa, x2 = 0.7021 | 723.42 ± 4.6
333.15 K, 3000 kPa, x2 = 0.1231 | 689.17 ± 4.4
333.15 K, 3000 kPa, x2 = 0.2315 | 693.28 ± 4.4
333.15 K, 3010 kPa, x2 = 0.4272 | 702.44 ± 4.5
333.15 K, 3010 kPa, x2 = 0.8941 | 750.17 ± 4.8
333.15 K, 3020 kPa, x2 = 0.3229 | 696.96 ± 4.5
333.15 K, 3020 kPa, x2 = 0.7021 | 724.44 ± 4.6
333.15 K, 4000 kPa, x2 = 0.7021 | 725.48 ± 4.7
333.15 K, 4010 kPa, x2 = 0.1231 | 690.19 ± 4.4
333.15 K, 4010 kPa, x2 = 0.2315 | 694.31 ± 4.5
333.15 K, 4010 kPa, x2 = 0.4272 | 703.48 ± 4.5
333.15 K, 4020 kPa, x2 = 0.3229 | 697.98 ± 4.5
333.15 K, 4020 kPa, x2 = 0.8941 | 751.17 ± 4.8
333.15 K, 5010 kPa, x2 = 0.2315 | 695.33 ± 4.5
333.15 K, 5010 kPa, x2 = 0.3229 | 699.01 ± 4.5
333.15 K, 5010 kPa, x2 = 0.4272 | 704.5 ± 4.5
333.15 K, 5010 kPa, x2 = 0.8941 | 752.16 ± 4.8
333.15 K, 5020 kPa, x2 = 0.1231 | 691.22 ± 4.4
333.15 K, 5020 kPa, x2 = 0.7021 | 726.49 ± 4.7
333.15 K, 6000 kPa, x2 = 0.7021 | 727.51 ± 4.7
333.15 K, 6000 kPa, x2 = 0.8941 | 753.15 ± 4.8
333.15 K, 6010 kPa, x2 = 0.2315 | 696.33 ± 4.5
333.15 K, 6010 kPa, x2 = 0.4272 | 705.51 ± 4.5

Source: the NIST ThermoML archive (doi:10.1021/acs.jced.8b00554)
